# Measured values reported in ChEMBL document CHEMBL1201861, “Genomics of Drug Sensitity in Cancer screening data, Wellcome Trust Sanger Institute”.
# What was measured:
# Test in all cases: cells
# COLO-824 = assay type: functional, cell-based, Homo sapiens; conditions: Homo sapiens, COLO-824
# Description: SANGER: Inhibition of human COLO-824 cell growth in a cell viability assay.
# D-263MG = assay type: functional, cell-based, Homo sapiens; conditions: Homo sapiens, D-263MG
# Description: SANGER: Inhibition of human D-263MG cell growth in a cell viability assay.
# DB = assay type: functional, cell-based; conditions: Homo sapiens
# Description: SANGER: Inhibition of human DB cell growth in a cell viability assay.
# DOHH-2 = assay type: functional, cell-based; conditions: Homo sapiens;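 further: growth inhibition of human DOHH-2 cells, read out with a cell viability assay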
# Description: SANGER: Inhibition of human DOHH-2 cell growth in a cell viability assay.
# DOK = assay type: functional, cell-based, Homo sapiens; conditions: Homo sapiens, DOK;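 further: cell viability assay read-out, values reflect inhibition of cell growth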
# Description: SANGER: Inhibition of human DOK cell growth in a cell viability assay.
# EM-2 = assay type: functional, cell-based; conditions: Homo sapiens;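 further: growth inhibition of EM-2 cells, read out with a cell viability assay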
# Description: SANGER: Inhibition of human EM-2 cell growth in a cell viability assay.
# ES6 = assay type: functional, cell-based, Homo sapiens; conditions: Homo sapiens, ES6;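 further: growth inhibition of human ES6 cells, read out with a cell viability assay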
# Description: SANGER: Inhibition of human ES6 cell growth in a cell viability assay.
# EW-16 = assay type: functional, cell-based, Homo sapiens; conditions: Homo sapiens, EW-16;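 further: growth inhibition of human EW-16 cells, read out as cell viability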
# Description: SANGER: Inhibition of human EW-16 cell growth in a cell viability assay.
# EOL1 = assay type: functional, cell-based; conditions: Homo sapiens;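 further: growth inhibition of EoL-1 cells, read out by a cell viability assay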
# Description: SANGER: Inhibition of human EoL-1-cell cell growth in a cell viability assay.
# GAMG = assay type: functional, cell-based, Homo sapiens; conditions: Homo sapiens, GAMG;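 further: cell growth inhibition measured by a viability assay in the GAMG human cell line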
# Description: SANGER: Inhibition of human GAMG cell growth in a cell viability assay.
# GR-ST = assay type: functional, cell-based; conditions: Homo sapiens
# Description: SANGER: Inhibition of human GR-ST cell growth in a cell viability assay.
# HCC1569 = assay type: functional, cell-based, Homo sapiens; conditions: Homo sapiens, HCC1569;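 further: growth inhibition of human HCC1569 cells, read out with a cell viability assay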
# Description: SANGER: Inhibition of human HCC1569 cell growth in a cell viability assay.
# HCC 2998 = assay type: functional, cell-based, Homo sapiens; conditions: Homo sapiens, HCC 2998;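 further: growth inhibition of human HCC2998 cells, measured with a cell viability read-out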
# Description: SANGER: Inhibition of human HCC2998 cell growth in a cell viability assay.
# HOP-92 = assay type: functional, cell-based, Homo sapiens; conditions: Homo sapiens, HOP-92;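 further: cell viability readout, with IC50 reflecting inhibition of HOP-92 cell growth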
# Description: SANGER: Inhibition of human HOP-92 cell growth in a cell viability assay.
# HT = assay type: functional, cell-based; conditions: Homo sapiens
# Description: SANGER: Inhibition of human HT cell growth in a cell viability assay.
# KINGS-1 = assay type: functional, cell-based, Homo sapiens; conditions: Homo sapiens, KINGS-1;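 further: cell viability assay measuring suppression of KINGS-1 cell growth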
# Description: SANGER: Inhibition of human KINGS-1 cell growth in a cell viability assay.
# KM12 = assay type: functional, cell-based, Homo sapiens; conditions: Homo sapiens, KM12;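 further: KM12 cell growth inhibition, read out with a cell viability assay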
# Description: SANGER: Inhibition of human KM12 cell growth in a cell viability assay.
# KY821 = assay type: functional, cell-based; conditions: Homo sapiens;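 further: growth inhibition of human KY821 cells, read out by a cell viability assay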
# Description: SANGER: Inhibition of human KY821 cell growth in a cell viability assay.
# LS-1034 = assay type: functional, cell-based, Homo sapiens; conditions: Homo sapiens, LS-1034
# Description: SANGER: Inhibition of human LS-1034 cell growth in a cell viability assay.
# MHH-NB-11 = assay type: functional, cell-based, Homo sapiens; conditions: Homo sapiens, MHH-NB-11;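 further: growth inhibition of human MHH-NB-11 cells, read out by a cell viability assay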
# Description: SANGER: Inhibition of human MHH-NB-11 cell growth in a cell viability assay.
# MIA PaCa-2 = assay type: functional, cell-based, Homo sapiens; conditions: Homo sapiens, MIA PaCa-2;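 further: growth inhibition of MIA PaCa-2 cells, read out with a cell viability assay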
# Description: SANGER: Inhibition of human MIA-PaCa-2 cell growth in a cell viability assay.
# MKN-7 = assay type: functional, cell-based, Homo sapiens; conditions: Homo sapiens, MKN-7;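 further: growth inhibition of MKN-7 cells, read out with a cell viability assay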
# Description: SANGER: Inhibition of human MKN7 cell growth in a cell viability assay.
# NB6 = assay type: functional, cell-based, Homo sapiens; conditions: Homo sapiens, NB6;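 further: growth inhibition of NB6 cells, read out by a cell viability assay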
# Description: SANGER: Inhibition of human NB6 cell growth in a cell viability assay.
# NCI-H2030 = assay type: functional, cell-based, Homo sapiens; conditions: Homo sapiens, NCI-H2030;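 further: growth inhibition of human NCI-H2030 cells, read out by a cell viability assay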
# Description: SANGER: Inhibition of human NCI-H2030 cell growth in a cell viability assay.
# NCI-H2052 = assay type: functional, cell-based, Homo sapiens; conditions: Homo sapiens, NCI-H2052;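 further: growth inhibition of NCI-H2052 cells, read out with a cell viability assay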
# Description: SANGER: Inhibition of human NCI-H2052 cell growth in a cell viability assay.
# NCI-H727 = assay type: functional, cell-based, Homo sapiens; conditions: Homo sapiens, NCI-H727;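 further: growth inhibition of human NCI-H727 cells, read out with a cell viability assay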
# Description: SANGER: Inhibition of human NCI-H727 cell growth in a cell viability assay.
# NCI-N87 = assay type: functional, cell-based, Homo sapiens; conditions: Homo sapiens, NCI-N87;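 further: growth inhibition of human NCI-N87 cells, read out with a cell viability assay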
# Description: SANGER: Inhibition of human NCI-N87 cell growth in a cell viability assay.
# NH-12 = assay type: functional, cell-based, Homo sapiens; conditions: Homo sapiens, NH-12;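 further: growth inhibition of NH-12 cells, read out with a cell viability assay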
# Description: SANGER: Inhibition of human NH-12 cell growth in a cell viability assay.
# OMC-1 = assay type: functional, cell-based, Homo sapiens; conditions: Homo sapiens, OMC-1;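 further: growth inhibition of the OMC-1 cell line, measured by a cell viability assay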
# Description: SANGER: Inhibition of human OMC-1 cell growth in a cell viability assay.
# RS4-11 = assay type: functional, cell-based; conditions: Homo sapiens;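 further: growth inhibition of RS4-11 cells, read out by a cell viability assay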
# Description: SANGER: Inhibition of human RS4-11 cell growth in a cell viability assay.
# SBC-5 = assay type: functional, cell-based, Homo sapiens; conditions: Homo sapiens, SBC-5;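 further: cell viability assay read-out, IC50 is the concentration that inhibits growth of the cells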
# Description: SANGER: Inhibition of human SBC-5 cell growth in a cell viability assay.
# SK-MES-1 = assay type: functional, cell-based, Homo sapiens; conditions: Homo sapiens, SK-MES-1;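 further: growth inhibition of human SK-MES-1 cells, read out with a cell viability assay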
# Description: SANGER: Inhibition of human SK-MES-1 cell growth in a cell viability assay.
# SN12C = assay type: functional, cell-based, Homo sapiens; conditions: Homo sapiens, SN12C;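 further: growth inhibition of human SN12C cells, measured by a cell viability assay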
# Description: SANGER: Inhibition of human SN12C cell growth in a cell viability assay.
# SW1710 = assay type: functional, cell-based, Homo sapiens; conditions: Homo sapiens, SW1710;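 further: growth inhibition of SW1710 cells, determined with a cell viability assay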
# Description: SANGER: Inhibition of human SW1710 cell growth in a cell viability assay.
# SW780 = assay type: functional, cell-based, Homo sapiens; conditions: Homo sapiens, SW780;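 further: growth inhibition of the cells, read out with a cell viability assay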
# Description: SANGER: Inhibition of human SW780 cell growth in a cell viability assay.
# SW837 = assay type: functional, cell-based, Homo sapiens; conditions: Homo sapiens, SW837;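 further: growth inhibition of SW837 cells, determined with a cell viability assay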
# Description: SANGER: Inhibition of human SW837 cell growth in a cell viability assay.
# SW 954 = assay type: functional, cell-based, Homo sapiens; conditions: Homo sapiens, SW 954;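 further: growth inhibition of SW954 human cancer cells, read out as cell viability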
# Description: SANGER: Inhibition of human SW954 cell growth in a cell viability assay.
# SW 962 = assay type: functional, cell-based, Homo sapiens; conditions: Homo sapiens, SW 962;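 further: growth inhibition of human SW962 cells, read out by a cell viability assay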
# Description: SANGER: Inhibition of human SW962 cell growth in a cell viability assay.
# 647-V = assay type: functional, cell-based, Homo sapiens; conditions: Homo sapiens, 647-V;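 further: growth inhibition of 647-V cells, read out with a cell viability assay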
# Description: SANGER: Inhibition of human 647-V cell growth in a cell viability assay.
# A 172 = assay type: functional, cell-based, Homo sapiens; conditions: Homo sapiens, A 172;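 further: growth inhibition of A172 cells, measured with a cell viability readout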
# Description: SANGER: Inhibition of human A172 cell growth in a cell viability assay.
# A2058 = assay type: functional, cell-based; conditions: Homo sapiens;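 further: reduction of A2058 cell growth, read out with a viability assay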
# Description: SANGER: Inhibition of human A2058 cell growth in a cell viability assay.
# A704 = assay type: functional, cell-based, Homo sapiens; conditions: Homo sapiens, A704;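 further: growth inhibition of human A704 cells, read out with a cell viability assay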
# Description: SANGER: Inhibition of human A704 cell growth in a cell viability assay.
# AM-38 = assay type: functional, cell-based, Homo sapiens; conditions: Homo sapiens, AM-38;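 further: growth inhibition of AM-38 cells of human origin, read out by a cell viability assay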
# Description: SANGER: Inhibition of human AM-38 cell growth in a cell viability assay.
# BXPC-3 = assay type: functional, cell-based, Homo sapiens; conditions: Homo sapiens, BXPC-3;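 further: growth inhibition of human BxPC-3 cells, read out by a cell viability assay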
# Description: SANGER: Inhibition of human BxPC-3 cell growth in a cell viability assay.
# TE-11 = assay type: functional, cell-based, Homo sapiens; conditions: Homo sapiens, TE-11;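 further: growth inhibition of human TE-11 cells, read out by a cell viability assay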
# Description: SANGER: Inhibition of human TE-11 cell growth in a cell viability assay.
# TE-6 = assay type: functional, cell-based, Homo sapiens; conditions: Homo sapiens, TE-6;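 further: growth inhibition of TE-6 cells, read out with a cell viability assay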
# Description: SANGER: Inhibition of human TE-6 cell growth in a cell viability assay.
# TGBC1TKB = assay type: functional, cell-based, Homo sapiens; conditions: Homo sapiens, TGBC1TKB;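 further: growth inhibition of TGBC1TKB cells, read out by a cell viability assay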
# Description: SANGER: Inhibition of human TGBC1TKB cell growth in a cell viability assay.
# U2OS = assay type: functional, cell-based, Homo sapiens, U-2-OS; conditions: Homo sapiens, U2OS;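 further: growth inhibition of human U-2-OS cells, determined with a cell viability assay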
# Description: SANGER: Inhibition of human U-2-OS cell growth in a cell viability assay.
# UMC-11 = assay type: functional, cell-based, Homo sapiens; conditions: Homo sapiens, UMC-11;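 further: growth inhibition of UMC-11 cells, read out with a cell viability assay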
# Description: SANGER: Inhibition of human UMC-11 cell growth in a cell viability assay.
# no-10 = assay type: functional, cell-based, Homo sapiens; conditions: Homo sapiens;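 further: growth inhibition of no-10 cells, read out with a cell viability assay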
# Description: SANGER: Inhibition of human no-10 cell growth in a cell viability assay.
# COLO-320-HSR = assay type: functional, cell-based; conditions: Homo sapiens;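 further: growth inhibition of COLO-320-HSR cells, determined with a cell viability assay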
# Description: SANGER: Inhibition of human COLO-320-HSR cell growth in a cell viability assay.
# COLO-679 = assay type: functional, cell-based, Homo sapiens; conditions: Homo sapiens, COLO-679
# Description: SANGER: Inhibition of human COLO-679 cell growth in a cell viability assay.
structure (smiles),measurement,setting,value
Cn1cncc1[C@@](N)(c1ccc(Cl)cc1)c1ccc2c(c1)c(-c1cccc(Cl)c1)cc(=O)n2C [TIPIFARNIB],IC50,COLO-824,> 16000 nM
same,IC50,D-263MG,> 16000 nM
same,IC50,DB,10700 nM
same,IC50,DOHH-2,7910 nM
same,IC50,DOK,> 16000 nM
same,IC50,EM-2,> 16000 nM
same,IC50,ES6,539 nM
same,IC50,EW-16,3590 nM
same,IC50,EOL1,6710 nM
same,IC50,GAMG,8920 nM
same,IC50,GR-ST,2870 nM
same,IC50,HCC1569,2580 nM
same,IC50,HCC 2998,384 nM
same,IC50,HOP-92,9130 nM
same,IC50,HT,8290 nM
same,IC50,KINGS-1,> 16000 nM
same,IC50,KM12,117 nM
same,IC50,KY821,> 16000 nM
same,IC50,LS-1034,2460 nM
same,IC50,MHH-NB-11,> 16000 nM
same,IC50,MIA PaCa-2,320 nM
same,IC50,MKN-7,> 16000 nM
same,IC50,NB6,> 16000 nM
same,IC50,NCI-H2030,2350 nM
same,IC50,NCI-H2052,> 16000 nM
same,IC50,NCI-H727,874 nM
same,IC50,NCI-N87,> 16000 nM
same,IC50,NH-12,5590 nM
same,IC50,OMC-1,6490 nM
same,IC50,RS4-11,1940 nM
same,IC50,SBC-5,2810 nM
same,IC50,SK-MES-1,1910 nM
same,IC50,SN12C,13200 nM
same,IC50,SW1710,726 nM
same,IC50,SW780,> 16000 nM
same,IC50,SW837,9890 nM
same,IC50,SW 954,2900 nM
same,IC50,SW 962,2150 nM
same,IC50,647-V,2300 nM
same,IC50,A 172,10100 nM
same,IC50,A2058,11800 nM
same,IC50,A704,> 16000 nM
same,IC50,AM-38,> 16000 nM
same,IC50,BXPC-3,4330 nM
same,IC50,TE-11,1690 nM
same,IC50,TE-6,7210 nM
same,IC50,TGBC1TKB,> 16000 nM
same,IC50,U2OS,> 16000 nM
same,IC50,UMC-11,> 16000 nM
same,IC50,no-10,> 16000 nM
same,IC50,COLO-320-HSR,13600 nM
same,IC50,COLO-679,985 nM
CCC1=C[C@@H]2CN(C1)Cc1c([nH]c3ccccc13)[C@@](C(=O)OC)(c1cc3c(cc1OC)N(C)[C@H]1[C@@](O)(C(=O)OC)[C@H](OC(C)=O)[C@]4(CC)C=CCN5CC[C@]31[C@@H]54)C2 [VINORELBINE],IC50,COLO-824,47.2 nM
same,IC50,D-263MG,> 64 nM
same,IC50,DB,19.4 nM
same,IC50,DOHH-2,5.04 nM
same,IC50,DOK,> 64 nM
same,IC50,EM-2,44.8 nM
same,IC50,ES6,42.4 nM
same,IC50,EW-16,4.35 nM
same,IC50,EOL1,9.09 nM
same,IC50,GAMG,13 nM
same,IC50,GR-ST,8.27 nM
same,IC50,HCC1569,4.93 nM
same,IC50,HCC 2998,5.05 nM
same,IC50,HOP-92,51.3 nM
same,IC50,HT,21.6 nM
same,IC50,KINGS-1,> 64 nM
same,IC50,KM12,2.61 nM
same,IC50,KY821,> 64 nM
same,IC50,LS-1034,> 64 nM
same,IC50,MHH-NB-11,17.7 nM
same,IC50,MIA PaCa-2,5.83 nM
same,IC50,MKN-7,> 64 nM
same,IC50,NB6,> 64 nM
same,IC50,NCI-H2030,3.62 nM
same,IC50,NCI-H2052,61 nM
same,IC50,NCI-H727,> 64 nM
same,IC50,NCI-N87,44.1 nM
same,IC50,NH-12,27 nM
same,IC50,OMC-1,> 64 nM
same,IC50,RS4-11,7.99 nM
same,IC50,SBC-5,2.08 nM
same,IC50,SK-MES-1,5.73 nM
same,IC50,SN12C,33.1 nM
same,IC50,SW1710,2.33 nM
same,IC50,SW780,14.9 nM
same,IC50,SW837,> 64 nM
same,IC50,SW 954,5.98 nM
same,IC50,SW 962,27.8 nM
same,IC50,647-V,20.9 nM
same,IC50,A 172,13.9 nM
same,IC50,A2058,3.5 nM
same,IC50,A704,> 64 nM
same,IC50,AM-38,33.5 nM
same,IC50,BXPC-3,3.9 nM
same,IC50,TE-11,9.16 nM
same,IC50,TE-6,> 64 nM
same,IC50,TGBC1TKB,> 64 nM
same,IC50,U2OS,> 64 nM
same,IC50,UMC-11,> 64 nM
same,IC50,no-10,45.6 nM
same,IC50,COLO-320-HSR,> 64 nM
same,IC50,COLO-679,1.83 nM
